# Target: USP30 (Homo sapiens (Human), UniProt Q70CQ3)
# Assay: USP30 biochemical FP or FI IC50 assay
# Conditions: read-out: IC50 range
# Protocol: USP30 Biochemical IC50 Assay
# Dilution plates were prepared at 21 times the final concentration (2100 μM for a final concentration of 100 μM) in 50% DMSO in a 96-well polypropylene V-bottom plate (Greiner #651201). A typical 8-point dilution series would be 100, 30, 10, 3, 1, 0.3, 0.1, 0.03 μM final. Reactions were performed in duplicate in black 384 well plates (small volume, Greiner 784076) in a final reaction volume of 21 μl. Either 1 μl of 50% DMSO or diluted compound was added to the plate. USP30 was diluted in reaction buffer (40 mM Tris, pH 7.5, 0.005% Tween 20, 0.5 mg/ml BSA, 5 mM—beta-mercaptoethanol) to the equivalent of 0.05 μl/well and 10 μl of diluted USP30 was added to the compound. Enzyme and compound were incubated for 30 min at room temp. Reactions were initiated by the addition of 50 nM of TAMRA labelled peptide linked to ubiquitin via an iso-peptide bond as fluorescence polarisation substrate. Reactions were read immediately after addition of substrate and following a 2 hr incubation at room temperature. Readings were performed on a Pherastar Plus (BMG Labtech). λ Excitation 540 nm; λ Emission 590 nm.
# USP30 Biochemical Fluorescence Intensity IC50 Assay
# Dilution plates were prepared at 21 times the final concentration (2100 μM for a final concentration of 100 μM) in 50% DMSO in a 96-well polypropylene V-bottom plate (Greiner #651201). A typical 8-point dilution series would be 100, 30, 10, 3, 1, 0.3, 0.1, 0.03 μM final. Reactions were performed in duplicate in black 384 well plates (small volume, Greiner 784076) in a final reaction volume of 21 μl.
# Either 1 μl of 50% DMSO or diluted compound was added to the plate. USP30 was diluted in reaction buffer (40 mM Tris, pH 7.5, 0.005% Tween 20, 0.5 mg/ml BSA, 5 mM—beta-mercaptoethanol) to the equivalent of 0.001 μl/well and 10 μl of diluted USP30 was added to the compound. Enzyme and compound were incubated for 30 min at room temp. Reactions were initiated by the addition of Ubiquitin-Rhodamine 110 (U-555; Boston Biochem) at a final concentration of 100 nM. Reactions were read immediately after addition of substrate and following a 2 h incubation at room temperature. Readings were performed on a Pherastar Plus (BMG Labtech). λ Excitation 487 nm; λ Emission 535 nm.
# USP30, sequence (Q70CQ3 57-517): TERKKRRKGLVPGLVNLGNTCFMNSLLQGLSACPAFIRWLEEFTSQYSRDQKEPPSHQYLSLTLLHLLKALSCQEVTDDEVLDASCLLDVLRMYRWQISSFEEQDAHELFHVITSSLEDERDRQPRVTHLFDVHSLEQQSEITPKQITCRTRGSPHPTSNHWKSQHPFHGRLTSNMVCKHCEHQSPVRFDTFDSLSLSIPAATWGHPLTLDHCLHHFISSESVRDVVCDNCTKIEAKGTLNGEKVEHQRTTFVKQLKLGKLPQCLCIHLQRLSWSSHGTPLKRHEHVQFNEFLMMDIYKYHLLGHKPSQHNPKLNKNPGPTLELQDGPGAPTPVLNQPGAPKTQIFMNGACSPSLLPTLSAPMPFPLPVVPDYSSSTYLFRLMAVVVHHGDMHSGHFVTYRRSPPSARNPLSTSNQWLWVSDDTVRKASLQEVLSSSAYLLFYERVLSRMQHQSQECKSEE
row,Structure (SMILES),IC50 [nM]
1,"N#CN1CCC(NC(=O)c2nc(-c3ccccc3)cs2)C1 (racemic) [Example 7, N-(1-cyanopyrrolidin-3-yl)-4-phenylthiazole-2-carboxamide]",100 to 1000
2,"N#CN1CCC(NC(=O)c2cc(-c3cccc(Cl)c3)no2)C1 (racemic) [Example 8, 3-(3-chlorophenyl)-N-(1-cyanopyrrolidin-3-yl)isoxazole-5-carboxamide]",< 100
3,"N#CN1CCC(NC(=O)c2cn(-c3ccccc3)cn2)C1 (racemic) [Example 9, N-(1-cyanopyrrolidin-3-yl)-1-phenyl-1H-imidazole-4-carboxamide]",100 to 1000
4,"N#CN1CCC(NC(=O)C2CC(=O)N(Cc3ccc(F)cc3F)C2)C1 (racemic) [Example 10, N-(1-cyanopyrrolidin-3-yl)-1-(2,4-difluorobenzyl)-5-oxopyrrolidine-3-carboxamide]",100 to 1000
5,"Cc1noc(C)c1-c1ccc(C(=O)NC2CCN(C#N)C2)cc1 (racemic) [Example 12, N-(1-cyanopyrrolidin-3-yl)-4-(3,5-dimethylisoxazol-4-yl)benzamide]",100 to 1000
6,"N#CN1CCC(NC(=O)c2ccc(-c3cccc(Cl)c3)cc2)C1 (racemic) [Example 13, 3′-chloro-N-(1-cyanopyrrolidin-3-yl)-[1,1′-biphenyl]-4-carboxamide]",< 100
7,"COc1ccccc1-c1ccc(C(=O)NC2CCN(C#N)C2)cc1 (racemic) [Example 14, N-(1-cyanopyrrolidin-3-yl)-2′-methoxy-[1,1′-biphenyl]-4-carboxamide]",< 100
8,"N#CN1CCC(NC(=O)c2ccc(Oc3ccccc3)cc2)C1 (racemic) [Example 15, N-(1-cyanopyrrolidin-3-yl)-4-phenoxybenzamide]",1000 to 10000
9,"N#CN1CCC(NC(=O)Cc2ccc(-c3ccccc3)cc2)C1 (racemic) [Example 16, 2-([1,1′-biphenyl]-4-yl)-N-(1-cyanopyrrolidin-3-yl)acetamide]",1000 to 10000
10,"N#CN1CCC(NC(=O)c2cc(-c3ccccc3)nc3ccccc23)C1 (racemic) [Example 17, N-(1-cyanopyrrolidin-3-yl)-2-phenylquinoline-4-carboxamide]",1000 to 10000
11,"N#CN1CCC(NC(=O)c2ccc(N3CCC(C(N)=O)CC3)nc2)C1 (racemic) [Example 18, 6-(4-carbamoylpiperidin-1-yl)-N-(1-cyanopyrrolidin-3-yl)nicotinamide]",1000 to 10000
12,"N#CN1CCC(NC(=O)c2ccc(N3CCN(c4ccc(F)cc4F)CC3)nc2)C1 (racemic) [Example 19, N-(1-cyanopyrrolidin-3-yl)-6-(4-(2,4-difluorophenyl)piperazin-1-yl)nicotinamide]",100 to 1000
13,"CCOC(=O)N1CCN(c2ccc(C(=O)NC3CCN(C#N)C3)cn2)CC1 (racemic) [Example 20, ethyl 4-(5-((1-cyanopyrrolidin-3-yl)carbamoyl)pyridin-2-yl)piperazine-1-carboxylate]",1000 to 10000
14,"N#CN1CCC(NC(=O)c2ccc(N3CCCC3c3cccnc3)nc2)C1 (racemic) [Example 21, N-(1-cyanopyrrolidin-3-yl)-6-(2-(pyridin-3-yl)pyrrolidin-1-yl)nicotinamide]",1000 to 10000
15,"N#CN1CCC(NC(=O)c2ccc(N3CCC(c4ccncc4)CC3)nc2)C1 (racemic) [Example 23, N-(1-cyanopyrrolidin-3-yl)-6-(4-(pyridin-4-yl)piperidin-1-yl)nicotinamide]",100 to 1000
16,"N#CN1CCC(NC(=O)c2cccc(N3CCc4ccccc4C3)n2)C1 (racemic) [Example 25, N-(1-cyanopyrrolidin-3-yl)-6-(3,4-dihydroisoquinolin-2(1H)-yl)picolinamide]",1000 to 10000
17,"N#CN1CCC(NC(=O)c2cccc(N3CCC(Oc4ccccc4)CC3)n2)C1 (racemic) [Example 26, N-(1-cyanopyrrolidin-3-yl)-6-(4-phenoxypiperidin-1-yl)picolinamide]",1000 to 10000

row,Structure (SMILES),IC50 [nM]
1,"CC(=O)N1CCCN(c2cc(C(=O)NC3CCN(C#N)C3)ccn2)CC1 (racemic) [Example 28, 2-(4-acetyl-1,4-diazepan-1-yl)-N-(1-cyanopyrrolidin-3-yl)isonicotinamide]",1000 to 10000
2,"N#CN1C[C@H]2CCN(C(=O)c3cccc(-c4ccccc4)c3)[C@H]2C1 (racemic) [Example 51, rac-(3aR,6aR)-1-([1,1′-biphenyl]-3-carbonyl)hexahydropyrrolo[3,4-b]pyrrole-5(1H)-carbonitrile]",< 100
3,"N#CN1C[C@H]2CCN(C(=O)c3cc(-c4ccccc4)n[nH]3)[C@H]2C1 (racemic) [Example 52, rac-(3aR,6aR)-1-(3-phenyl-1H-pyrazole-5-carbonyl)hexahydropyrrolo[3,4-b]pyrrole-5(1H)-carbonitrile]",100 to 1000
4,"N#CN1C[C@H]2CCN(C(=O)c3cc(-c4ccccc4)no3)[C@H]2C1 (racemic) [Example 53, rac-(3aR,6aR)-1-(3-phenylisoxazole-5-carbonyl)hexahydropyrrolo[3,4-b]pyrrole-5(1H)-carbonitrile]",100 to 1000
5,"N#CN1C[C@H]2CCN(C(=O)c3cn(-c4ccccc4)cn3)[C@H]2C1 (racemic) [Example 54, rac-(3aR,6aR)-1-(1-phenyl-1H-imidazole-4-carbonyl)hexahydropyrrolo[3,4-b]pyrrole-5(1H)-carbonitrile]",100 to 1000
6,"COc1ccc(-c2cc(C(=O)N3CC[C@@H]4CN(C#N)C[C@@H]43)[nH]n2)cc1 (racemic) [Example 55, rac-(3aR,6aR)-1-(3-(4-methoxyphenyl)-1H-pyrazole-5-carbonyl)hexahydropyrrolo[3,4-b]pyrrole-5(1H)-carbonitrile]",100 to 1000
7,"COc1ccc(-c2cc(C(=O)N3CC[C@@H]4CN(C#N)C[C@@H]43)on2)cc1 (racemic) [Example 56, rac-(3aR,6aR)-1-(3-(4-methoxyphenyl)isoxazole-5-carbonyl)hexahydropyrrolo[3,4-b]pyrrole-5(1H)-carbonitrile]",100 to 1000
8,"N#CN1C[C@H]2CCN(C(=O)c3ccc(F)c(-c4ccncc4)c3)[C@H]2C1 (racemic) [Example 57, rac-(3aR,6aR)-1-(4-fluoro-3-(pyridin-4-yl)benzoyl)hexahydropyrrolo[3,4-b]pyrrole-5(1H)-carbonitrile]",100 to 1000
9,"Cn1cc(-c2cc(C(=O)N3CC[C@@H]4CN(C#N)C[C@@H]43)ccc2F)cn1 (racemic) [Example 58, rac-(3aR,6aR)-1-(4-fluoro-3-(1-methyl-1H-pyrazol-4-yl)benzoyl)hexahydropyrrolo[3,4-b]pyrrole-5(1H)-carbonitrile]",100 to 1000
10,"COc1cc(C(=O)N2CC[C@@H]3CN(C#N)C[C@@H]32)ccc1-c1ccncc1Cl (racemic) [Example 59, rac-(3aR,6aR)-1-(4-(3-chloropyridin-4-yl)-3-methoxybenzoyl)hexahydropyrrolo[3,4-b]pyrrole-5(1H)-carbonitrile]",100 to 1000
11,"COc1cc(C(=O)N2CC[C@@H]3CN(C#N)C[C@@H]32)ccc1-c1cnn(C)c1 (racemic) [Example 60, rac-(3aR,6aR)-1-(3-methoxy-4-(1-methyl-1H-pyrazol-4-yl)benzoyl)hexahydropyrrolo[3,4-b]pyrrole-5(1H)-carbonitrile]",1000 to 10000
12,"CO[C@@H]1CCN(c2ccc(C(=O)N[C@H]3CN(C#N)C[C@@H]3C)c(F)c2)C1 (racemic) [Example 92, N-((trans)-1-cyano-4-methylpyrrolidin-3-yl)-2-fluoro-4-((R)-3-methoxypyrrolidin-1-yl)benzamide]",100 to 1000
13,"C[C@@H]1[C@H](NC(=O)c2ccc(-c3ccc(F)cc3)cn2)CCN1C#N (racemic) [Example 174, N-((cis)-1-cyano-2-methylpyrrolidin-3-yl)-5-(4-fluorophenyl)picolinamide]",100 to 1000
14,"C[C@H]1CN(C#N)C[C@@H]1NC(=O)c1ccc(N2CCOCC2)c(Cl)c1 (racemic) [Example 175, 3-chloro-N-((trans)-1-cyano-4-methylpyrrolidin-3-yl)-4-morpholinobenzamide]",< 100
15,"N#CN1C[C@H](NC(=O)c2cnc(-c3ccccc3Cl)s2)[C@@H](O)C1 (relative stereo) [Example 93, 2-(2-chlorophenyl)-N-((trans)-1-cyano-4-hydroxypyrrolidin-3-yl) thiazole-5-carboxamide]",< 100
16,"Cn1cc(-c2ccc(C(=O)N[C@@H]3CN(C#N)C[C@@H]3C3CC3)cc2F)cn1 (relative stereo) [Example 177, N-((cis)-1-cyano-4-cyclopropylpyrrolidin-3-yl)-3-fluoro-4-(1-methyl-1H-pyrazol-4-yl)benzamide]",100 to 1000

# — US10343992B2, “1-cyano-pyrrolidine compounds as USP30 inhibitors” (MISSION THERAPEUTICS LIMITED, priority 2015, dated 2019)
